Measured values: US20180201650A1 (BGI SHENZHEN, priority 2014, published 2018)
Entries after “also recorded” stand apart in the source; their conditions may differ.

Tested on: HVA calcium channel
Format: cell-based, rat

**Q.** Which “current after loading (pA)” value does the source give for GICCVDDTCTTHSGCL [κ-CPTx-btl05] here?
**A.** The value was −62.59 pA.

**Q.** And the “current before loading (pA)” value?
**A.** The value was −391.32 pA.

**Q.** And the “inhibition of HVA calcium channel currents compared with Nifedipine (in words)” value?
**A.** Its value is “inhibitory effect is higher than that of Nifedipine; also recorded: higher inhibition rate on HVA calcium channel currents than Nifedipine”.

**Q.** What about the “inhibition rate (%)” value (10 μM) of the same sequence?
**A.** The value was 83.24%.
